Read-outs that look alike come from different tables or passages of the source.
Legend:
[1] = logP (partitioning between octanol and water); assay type: physicochemical; conditions: read-out: logP
Description: As used herein “LogP” means a measure of lipophilicity of a substance determined based on the partitioning of the substance betwen octanol and water.

HT29 cells = assay: Cell cycle distribution (flow cytometry); assay type: cell-based, human
Procedure: Cells ([…], PC3 and HT29) were seeded at a density of 1.0×10^6 cells/3 ml medium per 60 mm dish. After 24 h attachment, cells were exposed to Compound 25 at the indicated concentrations for 2 h under either normoxia (air) or anoxia (nitrogen). Cells were washed twice, and incubated for an additional 22 h in fresh medium. Cells were trypsinized, centrifuged, and fixed in 75% ethanol at least for 24 h at −20° C. Cell cycle distribution was determined using Guava Cell Cycle reagent (Guava, Hayward, Calif.) by flow cytometry (Guava, Hayward, Calif.).

HT29 spheroids = assay: Spheroid model, clonogenic survival; assay type: cell-based; conditions: Homo sapiens, HT-29, read-out: IC90 HT29 Spheroid 10% O2
spheroids = assay: Spheroid combination with cisplatin or daunorubicin, clonogenic survival; assay type: cell-based, human; conditions: Homo sapiens, 2 h exposure
Procedure: The phosphoramidate alkylator prodrug was combined simultaneously with cisplatin or daunorubicin and the spreroids exposed for 2 h to the combination, followed by measurement of clonogenic survival.

[2] = molecular target: CYP2C19 (printed CYPC219) (Homo sapiens, UniProt P33261); assay: Cytochrome P450 inhibition; conditions: pH 7.4, probe (S)-mephenyloin
Procedure: (§1) A control reaction with no inhibitor was also prepared. After a suitable incubation at 37° C., the reactions were terminated by the addition of […] of 10% formic acid in water ([…] of acetonitrile for 2C19). […] Each assay was performed in duplicate.

CYP2C9 = CYP2C9 (Homo sapiens, UniProt P11712); assay: Cytochrome P450 inhibition; conditions: pH 7.4
Procedure: as §1

NCI H460 xenograft = assay: H460 xenograft mouse model with CDDP (Example 51); assay type: in vivo; conditions: 50 mg/kg daily or 100 mg/kg every three days, saline formulation
Procedure: Female CB17/SCID mice (purchased from Charles River, Cambridge, Mass.), 7-8 weeks of age, were allowed to acclimatize for at least three days, and handled under pathogen-free conditions. Human non-small cell lung carcinoma cell line NCI H460 was obtained from the American Type Culture Collection. The cell lines were cultured and harvested as described in Example 47 above, and inoculated at 3×10^6 cells/animal in the peritoneal subcutaneous space. When the tumors grew to an average volume of 100 mm^3, treatment was initiated in which groups of 10 mice received vehicle (Group 1), CDDP at 3 or 6 mg/kg (Groups 2 and 3, respectively, IV one time), Compound 25 at 50 mg/kg in saline 5 times per week for two weeks (Group 4), Compound 25 at 100 mg/kg every three days for 5 times (Group 5) or the combination of each dose of Compound 25 with either 3 or 6 mg/kg of CDDP (Groups 6 and 7, respectively). Results for groups receiving 50 mg/kg of Compound 25 are illustrated in the FIG. 1.

HT29 xenograft = assay: HT-29 xenograft mouse model with CDDP (Example 52); assay type: in vivo; conditions: for % Inhibition vs Group 1 / % Inhibition vs Group 2: tumor volumes at day 25; for % Inhibition vs Group 1: vs vehicle group, regimen per table
Procedure: Female CB17/SCID mice (purchased from Charles River, Cambridge, Mass.), 7-8 weeks of age, were allowed to acclimatize for at least three days, and handled under pathogen-free conditions. Human colon carcinoma cell line HT29 was obtained from the American Type Culture Collection. The cell lines were cultured and harvested as described in Example 47 and inoculated at 3×10^6 cells/animal in the peritoneal subcutaneous space. When the tumors grew to an average volume of 100 mm^3 (day 8), each group of mice (ten per group) was administered, for three weeks, as tabulated in the table below: Compound 25 in saline, administration route—i.p., administrated 2 h before CDDP on the days the combination therapy is scheduled and CDDP (in saline, IV).
The body weight and tumor volume were determined as described in Example 47. Data are based on tumor volumes at day 25 when tumors in the vehicle group had reached sufficient size to require that the mice be sacrificed.

Irs1SF = assay: Clonogenic survival - DNA mutant repair cells; conditions: Cricetulus griseus
PC3 cells = assay: Antiproliferation assay (Alamar Blue), anoxia vs air; conditions: Homo sapiens, PC-3, 2 h
in vivo = conditions: CD-1, mouse, 50 mg/kg
[3] = Group 7, Compound 25 i.p. in combination with CDDP IV
[4] = Group 8, Compound 25 i.p. in combination with CDDP IV
[5] = Group 9, Compound 25 i.p. in combination with CDDP IV
[6] = Group 10, Compound 25 i.p. in combination with CDDP IV

CYP2C9, sequence (P11712 whole entry): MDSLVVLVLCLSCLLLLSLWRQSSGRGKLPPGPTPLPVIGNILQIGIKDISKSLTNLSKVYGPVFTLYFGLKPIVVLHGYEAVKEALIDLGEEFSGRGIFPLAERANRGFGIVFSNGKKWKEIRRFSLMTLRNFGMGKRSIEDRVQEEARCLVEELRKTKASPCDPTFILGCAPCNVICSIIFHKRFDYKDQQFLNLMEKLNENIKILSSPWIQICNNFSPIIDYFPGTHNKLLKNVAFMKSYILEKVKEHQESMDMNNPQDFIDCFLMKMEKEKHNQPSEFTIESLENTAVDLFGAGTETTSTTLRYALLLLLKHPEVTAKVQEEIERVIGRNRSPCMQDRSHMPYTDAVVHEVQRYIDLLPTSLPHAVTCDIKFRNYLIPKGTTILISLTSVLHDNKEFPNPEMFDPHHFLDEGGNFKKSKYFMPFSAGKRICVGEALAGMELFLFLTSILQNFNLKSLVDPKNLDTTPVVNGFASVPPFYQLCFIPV
CYP2C19 (printed CYPC219), sequence (P33261 whole entry): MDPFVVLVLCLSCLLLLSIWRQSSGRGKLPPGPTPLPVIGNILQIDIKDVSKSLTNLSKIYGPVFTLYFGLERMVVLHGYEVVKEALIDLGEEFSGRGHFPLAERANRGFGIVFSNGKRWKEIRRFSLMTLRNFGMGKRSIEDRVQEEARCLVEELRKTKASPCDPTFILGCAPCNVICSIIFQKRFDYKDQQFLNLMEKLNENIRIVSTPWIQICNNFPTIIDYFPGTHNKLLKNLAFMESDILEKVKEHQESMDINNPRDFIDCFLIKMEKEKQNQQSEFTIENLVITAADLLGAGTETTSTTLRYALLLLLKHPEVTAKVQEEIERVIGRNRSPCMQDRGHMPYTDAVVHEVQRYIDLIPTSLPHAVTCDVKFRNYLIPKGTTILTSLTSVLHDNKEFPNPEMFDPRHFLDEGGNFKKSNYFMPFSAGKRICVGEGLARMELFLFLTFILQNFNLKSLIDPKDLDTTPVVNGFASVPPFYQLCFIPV

SMILES: Cn1c(COP(=O)(NCCBr)NCCBr)cnc1[N+](=O)[O-] [Compound 25]
- logP [1]: < 0
- Cell cycle G0/G1 (HT29 cells; 0.005 μM, Air): 52
- Cell cycle G2/M (HT29 cells; 0.005 μM, Air): 35
- Cell cycle S (HT29 cells; 0.005 μM, Air): 12
- Cell cycle G0/G1 (HT29 cells; 0.005 μM, Nitrogen): 46
- Cell cycle G2/M (HT29 cells; 0.005 μM, Nitrogen): 40
- Cell cycle S (HT29 cells; 0.005 μM, Nitrogen): 14
- Cell cycle G0/G1 (HT29 cells; 0.05 μM, Air): 50
- Cell cycle G2/M (HT29 cells; 0.05 μM, Air): 35
- Cell cycle S (HT29 cells; 0.05 μM, Air): 15
- Cell cycle G0/G1 (HT29 cells; 0.05 μM, Nitrogen): 37
- Cell cycle G2/M (HT29 cells; 0.05 μM, Nitrogen): 52
- Cell cycle S (HT29 cells; 0.05 μM, Nitrogen): 11
- Cell cycle G0/G1 (HT29 cells; 0.5 μM, Air): 48
- Cell cycle G2/M (HT29 cells; 0.5 μM, Air): 37
- Cell cycle S (HT29 cells; 0.5 μM, Air): 14
- Cell cycle G0/G1 (HT29 cells; 0.5 μM, Nitrogen): 8
- Cell cycle G2/M (HT29 cells; 0.5 μM, Nitrogen): 84
- Cell cycle S (HT29 cells; 0.5 μM, Nitrogen): 8
- Cell cycle G0/G1 (HT29 cells; 5 μM, Air): 47
- Cell cycle G2/M (HT29 cells; 5 μM, Air): 39
- Cell cycle S (HT29 cells; 5 μM, Air): 13
- Cell cycle G0/G1 (HT29 cells; 5 μM, Nitrogen): 14
- Cell cycle G2/M (HT29 cells; 5 μM, Nitrogen): 36
- Cell cycle S (HT29 cells; 5 μM, Nitrogen): 50
- IC90 (HT29 spheroids): 29 µM
- IC50 (spheroids; read-out: IC50 (μM), spheroids, cisplatin combination experiment): 12 µM
- IC50 (spheroids; read-out: IC50 (μM), spheroids, daunorubicin combination experiment): 9 µM
- IC50 [2]: > 50 µM
- IC50 (CYP2C9): ~10 µM
- tumor volume and tumor growth delay (NCI H460 xenograft): significant dose related decrease in tumor volume and increase in tumor growth delay
- % Inhibition vs Group 1 (HT29 xenograft; Group 3, Compound 25 in saline i.p.): 28.2%
- % Inhibition vs Group 1 (HT29 xenograft; Group 4, Compound 25 in saline i.p.): 30.1%
- % Inhibition vs Group 1 (HT29 xenograft; Group 5, Compound 25 in saline i.p.): 31.3%
- % Inhibition vs Group 1 (HT29 xenograft; Group 6, Compound 25 in saline i.p.): 48.1%
- % Inhibition vs Group 2 (HT29 xenograft; [3]): 30.8%
- % Inhibition vs Group 1 (HT29 xenograft; [3]): 50.7%
- % Inhibition vs Group 2 (HT29 xenograft; [4]): 27.5%
- % Inhibition vs Group 1 (HT29 xenograft; [4]): 44.2%
- % Inhibition vs Group 2 (HT29 xenograft; [5]): 21.5%
- % Inhibition vs Group 1 (HT29 xenograft; [5]): 36.2%
- % Inhibition vs Group 2 (HT29 xenograft; [6]): 33.2%
- % Inhibition vs Group 1 (HT29 xenograft; [6]): 51.8%
- tumor growth (HT29 xenograft; monotherapy 50 and 100 mg/kg/day, various regimens, saline): inhibition of tumor growth
- body weight (HT29 xenograft; more so in combination groups, recovered): modest body weight loss
- IC90 (Irs1SF; read-out: IC90 Irs1SF Air): 20 µM
- IC90 (Irs1SF; read-out: IC90 Irs1SF N2): 0.02 µM
- IC50 (PC3 cells; read-out: IC50 PC3 Air): > 100 µM
- IC50 (PC3 cells; read-out: IC50 PC3 Anoxia): 0.6 µM

SMILES: Cn1c(COP(=O)(NCCCl)NCCCl)cnc1[N+](=O)[O-] [Compound 36]
- AUC (in vivo; ip): 1440 µg·h/mL
- Cmax (in vivo; ip): 44000 ng/mL
- Tmax (in vivo; ip): 15 min
- half-life (in vivo; ip): 11 min
- AUC (in vivo; iv): 646 µg·h/mL
- Cmax (in vivo; iv): 27700 ng/mL
- Tmax (in vivo; iv): 5 min
- half-life (in vivo; iv): 14.1 min

Reference: patent US8507464B2, “Phosphoramidate alkylator prodrugs” (Threshold Pharmaceuticals, Inc., priority 2005, dated 2013)
